ChEMBL document CHEMBL3621110, “Discovery and Development of the Aryl O-Sulfamate Pharmacophore for Oncology and Women's Health” (J Med Chem, 2015)

How the values were obtained:
Aromatase = biological target: T1, Aromatase (Homo sapiens, UniProt P11511)
T1 sequence (P11511 whole entry): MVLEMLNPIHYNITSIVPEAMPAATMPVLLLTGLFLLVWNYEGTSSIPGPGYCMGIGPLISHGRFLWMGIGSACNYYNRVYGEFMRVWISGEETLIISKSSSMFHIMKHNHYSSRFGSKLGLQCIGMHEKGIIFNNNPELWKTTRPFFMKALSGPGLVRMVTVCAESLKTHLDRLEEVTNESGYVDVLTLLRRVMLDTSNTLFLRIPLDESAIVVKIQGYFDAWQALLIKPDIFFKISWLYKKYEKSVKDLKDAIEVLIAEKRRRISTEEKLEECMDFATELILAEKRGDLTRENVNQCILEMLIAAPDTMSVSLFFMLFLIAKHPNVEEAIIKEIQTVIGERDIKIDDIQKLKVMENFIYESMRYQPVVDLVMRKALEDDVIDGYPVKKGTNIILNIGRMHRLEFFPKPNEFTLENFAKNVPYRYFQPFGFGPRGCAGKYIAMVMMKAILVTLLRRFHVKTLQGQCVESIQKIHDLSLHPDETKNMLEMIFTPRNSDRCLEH

Rattus norvegicus [1] = species on record: Rattus norvegicus; test: animal or person; format: functional; details: Wistar, po, 3 h
Rattus norvegicus [2] = species on record: Rattus norvegicus; test: animal or person; format: functional; details: Wistar, Liver, po
MCF7 [3] = test: animal or person; format: functional, Homo sapiens; details: Mus musculus, MCF7, po, 1176 h
Homo sapiens [4] = species on record: Homo sapiens; format: functional; details: at 80 mg/day
Homo sapiens [5] = species on record: Homo sapiens; format: functional; details: at 5 mg/day
Steryl-sulfatase [6] = biological target: T2, Steryl-sulfatase (Homo sapiens, UniProt P08842); parameters: species or system Placenta, Microsome
T2 sequence (P08842 whole entry): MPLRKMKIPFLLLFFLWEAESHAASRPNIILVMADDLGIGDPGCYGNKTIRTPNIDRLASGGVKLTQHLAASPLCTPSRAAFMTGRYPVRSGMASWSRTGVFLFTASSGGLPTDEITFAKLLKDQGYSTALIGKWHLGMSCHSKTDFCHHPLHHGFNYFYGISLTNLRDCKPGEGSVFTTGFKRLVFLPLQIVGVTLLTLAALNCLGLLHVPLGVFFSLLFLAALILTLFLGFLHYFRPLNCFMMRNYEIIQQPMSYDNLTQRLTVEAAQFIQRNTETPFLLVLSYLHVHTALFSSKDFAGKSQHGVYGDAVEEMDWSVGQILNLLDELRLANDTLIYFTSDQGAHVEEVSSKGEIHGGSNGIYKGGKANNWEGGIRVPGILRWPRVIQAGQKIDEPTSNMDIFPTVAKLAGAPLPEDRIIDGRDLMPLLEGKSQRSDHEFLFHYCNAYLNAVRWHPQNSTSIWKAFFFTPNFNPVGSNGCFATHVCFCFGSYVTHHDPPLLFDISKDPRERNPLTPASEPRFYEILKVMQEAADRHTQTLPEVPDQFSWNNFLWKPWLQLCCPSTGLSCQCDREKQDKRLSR

MCF7 [7] = test: animal or person; format: functional, Homo sapiens; details: Mus musculus, MCF7, po, 1176 h; remark: listed apart in the source
in vivo = details: Wistar, rat, po, 10 mg/kg
Steryl-sulfatase [8] = biological target: T2, Steryl-sulfatase; format: microsomes, Placenta, Microsome
MCF7 [9] = test: animal or person; format: functional, Homo sapiens; details: Mus musculus, MCF7, po, 1176 h; remark: listed apart in the source
MCF7 [10] = test: animal or person; format: functional, Homo sapiens; details: Mus musculus, MCF7, po, 1176 h; remark: listed apart in the source
Rattus norvegicus [11] = species on record: Rattus norvegicus; test: animal or person; format: functional; details: Liver, po, 120 h
DU-145 [12] = test: cells; format: functional; details: Homo sapiens
MDA-MB-231 [13] = test: animal or person; format: functional, Homo sapiens; details: Mus musculus, MDA-MB-231, po, 840 h
MDA-MB-231 [14] = test: cells; format: functional; details: Homo sapiens
Steryl-sulfatase [15] = biological target: T2, Steryl-sulfatase
Estrogen receptor = biological target: T3, Estrogen receptor (Homo sapiens, UniProt P03372)
T3 sequence (P03372 whole entry): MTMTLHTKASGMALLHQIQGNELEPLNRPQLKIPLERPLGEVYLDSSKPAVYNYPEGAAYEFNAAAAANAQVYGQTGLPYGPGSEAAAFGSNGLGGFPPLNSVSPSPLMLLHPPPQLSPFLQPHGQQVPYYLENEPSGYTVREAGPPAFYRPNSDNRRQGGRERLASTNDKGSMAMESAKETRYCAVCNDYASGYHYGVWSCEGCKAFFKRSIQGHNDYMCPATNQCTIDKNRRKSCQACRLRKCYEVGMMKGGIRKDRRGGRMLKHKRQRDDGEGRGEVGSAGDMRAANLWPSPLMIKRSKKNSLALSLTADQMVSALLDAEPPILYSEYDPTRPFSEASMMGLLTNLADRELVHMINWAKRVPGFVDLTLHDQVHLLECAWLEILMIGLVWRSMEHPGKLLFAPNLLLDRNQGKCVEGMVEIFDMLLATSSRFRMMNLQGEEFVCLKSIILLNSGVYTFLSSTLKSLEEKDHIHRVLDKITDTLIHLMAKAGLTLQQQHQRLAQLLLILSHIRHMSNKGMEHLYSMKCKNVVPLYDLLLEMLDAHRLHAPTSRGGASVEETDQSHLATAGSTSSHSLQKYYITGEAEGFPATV

Steryl-sulfatase [16] = biological target: T2, Steryl-sulfatase; format: cell-based, HEK293
DU-145 [17] = test: cells; format: functional; details: Homo sapiens, DU-145, 96 h
MDA-MB-231 [18] = test: cells; format: functional; details: Homo sapiens, MDA-MB-231, 96 h
Carbonic anhydrase 2 = Carbonic anhydrase 2 (Homo sapiens, UniProt P00918)
Rattus norvegicus [19] = species on record: Rattus norvegicus; test: animal or person; format: functional; details: Wistar, Liver, po, 24 h
Rattus norvegicus [20] = species on record: Rattus norvegicus; test: animal or person; format: functional; details: Wistar, Liver, po, 24 h; remark: listed apart in the source
Rattus norvegicus [21] = species on record: Rattus norvegicus; test: animal or person; format: functional; details: po, 2 h
Rattus norvegicus [22] = species on record: Rattus norvegicus; test: animal or person; format: functional; details: Liver, po, 2 h
MCF7 [23] = test: cells; format: functional; details: Homo sapiens
Homo sapiens [24] = species on record: Homo sapiens; format: functional
Rattus norvegicus [25] = species on record: Rattus norvegicus; test: animal or person; format: functional; details: Wistar, Liver, sc, 168 h
Rattus norvegicus [26] = species on record: Rattus norvegicus; test: animal or person; format: functional; details: Wistar, Liver, sc, 168 h; remark: listed apart in the source
Rattus norvegicus [27] = species on record: Rattus norvegicus; test: animal or person; format: functional; details: po, 2 h; remark: listed apart in the source
Homo sapiens [28] = species on record: Homo sapiens; format: functional; remark: listed apart in the source
Rattus norvegicus [29] = species on record: Rattus norvegicus; test: animal or person; format: functional; details: Liver, po, 2 h; remark: listed apart in the source
Rattus norvegicus [30] = species on record: Rattus norvegicus; test: animal or person; format: functional; details: po, 2 h; remark: listed apart in the source
Homo sapiens [31] = species on record: Homo sapiens; format: functional; remark: listed apart in the source
Homo sapiens [32] = species on record: Homo sapiens; format: functional; remark: listed apart in the source
Rattus norvegicus [33] = species on record: Rattus norvegicus; test: animal or person; format: functional; details: Liver, po, 2 h; remark: listed apart in the source

## N#Cc1ccc(N(Cc2ccc(Br)cc2)n2cnnc2)cc1
Aromatase
  IC50: 0.00012 µM
Rattus norvegicus [1]
  inhibition in vivo at 10 mg/kg: 70%
Rattus norvegicus [2]
  inhibition in vivo at 10 mg/kg: ≥ 98%

## NS(=O)(=O)Oc1ccc2c(c1)OC(=O)C1CCCCCC21 (configuration not stated)
MCF7 [3]
  inhibition in vivo at 20 mg/kg: 79%
Homo sapiens [4]
  inhibition (INH): >=95%
Homo sapiens [5]
  inhibition (INH): >=95%
Steryl-sulfatase [6]
  IC50: 0.008 µM
MCF7 [7]
  inhibition in vivo at 20 mg/kg: 39%
In vivo
  bioavailability: 95%

## CCCN1C(=O)C[C@H]2[C@@H]3CCc4cc(OS(N)(=O)=O)ccc4[C@H]3CC[C@]2(C)C1=O
Steryl-sulfatase [8]
  IC50: 0.001 µM
MCF7 [9]
  inhibition in vivo at 10 mg/kg: 39%
MCF7 [10]
  inhibition in vivo at 10 mg/kg: 56%
Rattus norvegicus [11]
  inhibition in vivo at 10 mg/kg/day: 99%

## COc1cc2c(cc1OS(N)(=O)=O)CCN(Cc1cc(OC)c(OC)c(OC)c1)C2
DU-145 [12]
  GI50: 0.297 µM
MDA-MB-231 [13]
  inhibition in vivo at 20 mg/kg/day: 84%
MDA-MB-231 [14]
  GI50: 0.329 µM

## CC(C)(C#N)c1cc(Cn2cncn2)cc(Sc2ccc(OS(N)(=O)=O)c(Cl)c2)c1
Steryl-sulfatase [15]
  IC50: 3 µM

## CCN(Cc1ccc(C(=O)N2CCc3ccc(OS(N)(=O)=O)cc3C2)cc1)Cc1ccccn1
Estrogen receptor
  IC50: 3.1 µM
Steryl-sulfatase [16]
  IC50: 0.3 µM

## CCN(CC)CCOCC[C@@]1(C)CC[C@H]2[C@@H]3[C@H](C)Cc4cc(OS(N)(=O)=O)ccc4[C@H]3CC[C@@]21C
DU-145 [17]
  GI50: 0.051 µM
MDA-MB-231 [18]
  GI50: 0.071 µM

## CCc1cc2c(cc1OS(N)(=O)=O)CC[C@@H]1[C@@H]2CC[C@]2(C)[C@@H](OS(N)(=O)=O)CC[C@@H]12
Carbonic anhydrase 2
  Ki: 0.232 µM

## NS(=O)(=O)Oc1ccc(C(=O)c2ccc(OS(N)(=O)=O)cc2)cc1
Rattus norvegicus [19]
  inhibition in vivo at 1 mg/kg: 84%
Rattus norvegicus [20]
  inhibition in vivo at 10 mg/kg: 93%

## C[C@]12CC[C@@H]3c4ccc(OS(N)(=O)=O)cc4CC[C@H]3[C@@H]1CCC2=O [EMATE]
Rattus norvegicus [21]
  inhibition in vivo at 20 mg/kg: 98%
Rattus norvegicus [22]
  inhibition in vivo at 10 mg/kg: 98%
MCF7 [23]
  GI50: 22.8 µM
Homo sapiens [24]
  inhibition (INH): 72%
Rattus norvegicus [25]
  inhibition in vivo at 0.1 mg/kg: 87%
Rattus norvegicus [26]
  inhibition in vivo at 0.1 mg/kg: 87%
Rattus norvegicus [27]
  inhibition in vivo at 10 mg/kg: 98%
Homo sapiens [28]
  inhibition (INH): 34%
Rattus norvegicus [29]
  inhibition in vivo at 40 mg/kg: 98%
Rattus norvegicus [30]
  inhibition in vivo at 40 mg/kg: 98%
Homo sapiens [31]
  inhibition (INH): 41%
Homo sapiens [32]
  inhibition (INH): 50%
Rattus norvegicus [33]
  inhibition in vivo at 20 mg/kg: 98%
